Data set [1] has as its system Pseudomonas aeruginosa. Put plainly: Antibacterial activity against Pseudomonas aeruginosa ATCC 27853 after 24 hrs by broth microdilution method. The class given is functional. In general terms: Dilution methods test growth across graded concentrations, often in twofold steps.
Data set [2] relates to Staphylococcus intermedius. Briefly: Antibacterial activity against Staphylococcus intermedius isolate 1051997 after 24 hrs by broth microdilution method. The class given is functional. The settings on record: isolate 1051997, 24 h.
A short description of data set [3]: Inhibition of recombinant human farnesyltransferase using dansyl-GCVLS as substrate in presence of farnesyl pyrophosphate after 15 mins by fluorescence assay.
A short description of data set [4]: Inhibition of Trypanosoma brucei recombinant farnesyltransferase using dansyl peptide containing GCAIM as substrate in presence of farnesyl pyrophosphate after 15 mins by fluorescence assay.
Data set [5] has as its system Plasmodium falciparum. Briefly: Antiplasmodial activity against chloroquine-sensitive IEF stage of Plasmodium falciparum NF54 infected in human RBC assessed as reduction in [3H]hypoxanthine incorporation preincubated for 48 hrs followed by [3H]hypoxanthine addition measured after 24 hrs by liquid scintillation counting method. The class given is functional.
For data set [6], the system named is L6. Put plainly: Cytotoxicity against rat L6 cells after 72 hrs by Alamar blue assay. It counts as cell-based. Particulars: L6, 72 h. (The colour change of resazurin is a common sign of viable cells or microbes.)
Data set [7] relates to Escherichia coli. Put plainly: Antibacterial activity against Escherichia coli ATCC 25922 after 24 hrs by broth microdilution method. The class given is functional.
Data set [8] relates to Staphylococcus aureus. Put plainly: Antibacterial activity against Staphylococcus aureus ATCC 25923 after 24 hrs by broth microdilution method. The class given is functional. Particulars: ATCC 25923, 24 h.
In data set [9] the test system is Plasmodium falciparum. Put plainly: Antiplasmodial activity against chloroquine-resistant erythrocyte stage of Plasmodium falciparum FcM29-Cameroon infected in human RBC assessed as reduction in [3H]hypoxanthine incorporation preincubated for 48 hrs followed by [3H]hypoxanthine addition measured after 24 hrs by liquid scintillation counting method. The class given is functional.

Data set [10] in a line: Selectivity index, ratio of IC50 for rat L6 cells to IC50 for chloroquine-sensitive IEF stage of Plasmodium falciparum NF54 infected in human RBC. It counts as toxicity. The settings on record: read-out: Ratio IC50.

≈ marks a conversion by molar mass, not a printed value. Calls of active or inactive are those of the source. The rule behind the calls is not given here.

Turning to `CC(C)=CCc1cc2c(cc1O)C1=C(C(=O)C3=C(C1=O)S(=O)(=O)CCN3)C(C=C(C)C)O2` (stereo not drawn), the outcome in data set [1] and in data set [7] was inactive. The minimum inhibitory concentration (MIC) in data set [2] and in data set [8] was greater than 200 µM throughout. Moreover, the 50% inhibitory concentration (IC50) stood at 3.1 µM in data set [3], 2.3 µM in [4], 0.29 µM in data set [5] and 0.4 µM in [6] (read-out: IC50).
Turning to `COc1cc([C@@H]2c3cc4c(cc3[C@H](O)[C@H]3COC(=O)[C@H]23)OCO4)cc(OC)c1OC` [PODOFILOX], in [6], the half-maximal inhibitory concentration (IC50) was 0.012 µM.
Turning to `CC(C)=CCC/C(C)=C/Cc1cc(O)cc2c1OC(/C=C(\C)CCC=C(C)C)C1=C2C(=O)C2=C(NCCS2(=O)=O)C1=O` (stereo not drawn), the result in [1] and in data set [7] was inactive. Also, the IC50 in data set [9] amounted to 4.56 µM; in data set [3], 0.14 µM; in data set [4], 0.22 µM. For the same compound, the MIC in data set [2] and in data set [8] was greater than 200 µM each time.
On to `CC(C)=CCC/C(C)=C/CC/C(C)=C/Cc1cc2c(cc1O)C1=C(C(=O)C3=C(NCCS3(=O)=O)C1=O)C(/C=C(\C)CC/C=C(\C)CCC=C(C)C)O2` (stereo not drawn), for which the outcome in data set [1] and in data set [7] was inactive. Further, the MIC in data set [2] and in data set [8] was greater than 200 µM throughout. Further, the IC50 in [3] was determined as 0.45 µM; in [4], 1 µM; in data set [5] it was 3.4 µM; in data set [6] (read-out: IC50), 25.8 µM.
Regarding `CC(C)=CCc1cc(O)cc2c1OC(C=C(C)C)C1=C2C(=O)C2=C(NCCS2(=O)=O)C1=O` (stereo not drawn), the result in data set [1] and in data set [7] was inactive. Moreover, the minimal inhibitory concentration (MIC) in data set [2] and in [8] was greater than 200 µM in each case. Also, the IC50 in data set [3] was 14.7 µM; in data set [4] it was 19.6 µM; in data set [5], 2 µM; in data set [6] (read-out: IC50), 4.2 µM.
For the compound `CC(C)=CCC/C(C)=C/CC/C(C)=C/Cc1cc(O)cc2c1OC(/C=C(\C)CC/C=C(\C)CCC=C(C)C)C1=C2C(=O)C2=C(C1=O)S(=O)(=O)CCN2` (stereo not drawn), the outcome in data set [1] and in data set [7] was inactive. For the same compound, the minimum inhibitory concentration (MIC) in data set [2] and in data set [8] was greater than 200 µM throughout. Further, the half-maximal inhibitory concentration (IC50) worked out at 0.17 µM in data set [3], 0.35 µM in data set [4], 4 µM in data set [5] and 30.6 µM in data set [6] (read-out: IC50).
For the compound `CC(C)=CCC/C(C)=C/CC/C(C)=C/Cc1cc2c(cc1O)C1=C(C(=O)C3=C(C1=O)S(=O)(=O)CCN3)C(/C=C(\C)CC/C=C(\C)CCC=C(C)C)O2` (stereo not drawn), the outcome in [1] and in data set [7] was inactive. The minimal inhibitory concentration (MIC) in data set [2] and in data set [8] was greater than 200 µM each time. The concentration for half-maximal inhibition (IC50) in [3] amounted to 4.7 µM; in data set [4], 5.2 µM; in data set [5], 7.4 µM; in [6] (read-out: IC50) it was 126 µM. Moreover, the selectivity ratio in data set [10] turned out to be 17.
Take `O=C(N[C@H](CO)[C@H](O)c1ccc([N+](=O)[O-])cc1)C(Cl)Cl` [CHLORAMPHENICOL]: the MIC in [2] lay in the range of 3 to 6 µM (≈ 0.969 to 1.94 µg/mL); in data set [8], 1.5 to 3 µM (≈ 0.485 to 0.969 µg/mL).
Take `CSCC[C@H](NC(=O)c1ccc(NC[C@@H](N)CS)cc1-c1ccccc1)C(=O)O`: the concentration for half-maximal inhibition (IC50) in data set [4] turned out to be 0.01 µM.
As to `CC(C)=CCC/C(C)=C/CC/C(C)=C/C1Oc2ccc(O)cc2C2=C1C(=O)C=CC2=O` (stereo not drawn), the result in data set [1] and in data set [7] was inactive. In addition, the MIC turned out to be 3.12 µM (≈ 1.31 µg/mL) in [2] and 6.25 µM (≈ 2.62 µg/mL) in [8]. For the same compound, the concentration for half-maximal inhibition (IC50) in data set [3] was 1.7 µM; in data set [4], 3.3 µM; in [5] it was 7.2 µM; in data set [6] (read-out: IC50), 23.5 µM.
As for `CN[C@@H]1[C@H](O[C@H]2[C@H](O[C@H]3[C@H](O)[C@@H](O)[C@H](N=C(N)N)[C@@H](O)[C@@H]3N=C(N)N)O[C@@H](C)[C@]2(O)C=O)O[C@@H](CO)[C@H](O)[C@H]1O` [STREPTOMYCIN], the MIC in data set [2] came to 10.7 µM (≈ 6.22 µg/mL); in [8] it was 21.5 µM (≈ 12.5 µg/mL).
Turning to `COC1=CC(=O)C2=C(C1=O)c1cc(O)ccc1OC2/C=C(\C)CC/C=C(\C)CCC=C(C)C` (stereo not drawn), the outcome in [1] and in data set [7] was inactive. The MIC worked out at 50 µM (≈ 22.4 µg/mL) in data set [2] and 25 µM (≈ 11.2 µg/mL) in [8]. Further, the IC50 in [3] is greater than 22.3 µM; in data set [4], greater than 22.3 µM; in data set [5], 20.4 µM; in [6] (read-out: IC50) it was 34.3 µM.
In the case of `CC(C)=CCC/C(C)=C/Cc1cc2c(cc1O)C1=C(C(=O)C3=C(C1=O)S(=O)(=O)CCN3)C(/C=C(\C)CCC=C(C)C)O2` (stereo not drawn), the result in data set [1] and in data set [7] was inactive. Moreover, the 50% inhibitory concentration (IC50) in data set [9] is 4.39 µM; in [3], 0.054 µM; in data set [4], 0.098 µM. The MIC in [2] and in data set [8] was greater than 200 µM in each case.
`CC(C)=CCC/C(C)=C/Cc1cc2c(cc1O)C1=C(C(=O)C3=C(NCCS3(=O)=O)C1=O)C(/C=C(\C)CCC=C(C)C)O2` (stereo not drawn): the outcome in [1] and in data set [7] was inactive. In addition, the IC50 was greater than 17 µM in data set [9], 1.22 µM in [3] and 3.04 µM in data set [4]. In addition, the MIC in [2] and in [8] was greater than 200 µM each time.
With `CC(C)=CCc1cc2c(cc1O)C1=C(C(=O)C3=C(NCCS3(=O)=O)C1=O)C(C=C(C)C)O2` (stereo not drawn), the outcome in [1] and in data set [7] was inactive. The minimum inhibitory concentration (MIC) in data set [2] and in data set [8] was greater than 200 µM in each case. The IC50 in data set [3] is greater than 22 µM; in [4], greater than 22 µM; in [5], 4.8 µM; in data set [6] (read-out: IC50), 5.2 µM.
`CC(C)=CCC/C(C)=C/CC/C(C)=C/Cc1cc(O)cc2c1OC(/C=C(\C)CC/C=C(\C)CCC=C(C)C)C1=C2C(=O)C2=C(NCCS2(=O)=O)C1=O` (stereo not drawn): the result in [1] and in [7] was inactive. Also, the MIC in [2] and in data set [8] was greater than 200 µM in each case. For the same compound, the concentration for half-maximal inhibition (IC50) came out at 1.5 µM in [3], 2.9 µM in data set [4], 2.9 µM in data set [5] and 16.7 µM in [6] (read-out: IC50).
For `CC(C)=CCC/C(C)=C/Cc1cc(O)cc2c1OC(/C=C(\C)CCC=C(C)C)C1=C2C(=O)C2=C(C1=O)S(=O)(=O)CCN2` (stereo not drawn), the outcome in data set [1] and in data set [7] was inactive. The IC50 in data set [9] is greater than 17 µM; in data set [3] it was 0.78 µM; in data set [4], 0.74 µM. For the same compound, the minimal inhibitory concentration (MIC) in [2] and in data set [8] was greater than 200 µM each time.
For `CC(C)=CCC/C(C)=C/CC/C(C)=C/C1Oc2c(cc(O)c3c2-c2cc(O)ccc2OC3/C=C(\C)CC/C=C(\C)CCC=C(C)C)C2=C1C(=O)C=CC2=O` (stereo not drawn), the result in [1] and in [7] was inactive. In addition, the MIC in [2] and in [8] was greater than 200 µM throughout. In addition, the half-maximal inhibitory concentration (IC50) in data set [3] was found to be 1 µM; in data set [4] it was 1.6 µM; in data set [5], 33.9 µM; in data set [6] (read-out: IC50), 53.2 µM.
With `CC(C)=CCc1cc(O)cc2c1OC(C=C(C)C)C1=C2C(=O)C2=C(C1=O)S(=O)(=O)CCN2` (stereo not drawn), the result in data set [1] and in [7] was inactive. Also, the MIC in [2] and in data set [8] was greater than 200 µM each time. The half-maximal inhibitory concentration (IC50) was 17.3 µM in data set [3], greater than 22 µM in [4], 8 µM in data set [5] and 12.8 µM in [6] (read-out: IC50).

As usually defined, the MIC is the lowest concentration found to suppress growth. A lower MIC goes with inhibition by little substance. A word on the IC50: it is the concentration needed to halve the response being measured.

Source of the values: ChEMBL document CHEMBL4052727, “Structure-activity relationship studies on thiaplidiaquinones A and B as novel inhibitors of Plasmodium falciparum and farnesyltransferase” (Bioorg Med Chem, 2017).
